Experimental data from US20210346500A1, “PHOTOOXIDATIVE INACTIVATION OF PATHOGENS INCLUDING SARS-CoV-2” (laneg GmbH, priority 2020, published 2021).
Entries after “also recorded” stand apart in the source; their conditions may differ.

Legend:
Type in all cases: in vivo, human
SARS-CoV-2 (COVID-19) = assay: Placebo-controlled clinical study of photodynamic treatment: course of disease and mortality in COVID-19 patients
Protocol: The photosensitizer used was methylene blue as a 1% solution of methylthioninium-chloride dissolved in a 5% glucose solution. (Heltschl GmbH, Germany). The methylene blue solution was applied by flushing and gargling in the oral cavity and throat, and by spraying in the nasal cavity.
(§1) The photodynamic excitation was performed using the Medlouxx PDT device, produced by laneg GmbH, Germany (www.medlouxx.com). The device applicator emits 660nm laser radiation with 240 mW power. The infected areas were irradiated for 5 minutes resulting in a dosage of about 72 J/cm2. This procedure: 1 min flushing followed by 5 minutes irradiation, was repeated 5 times, resulting in a total dosage of about 360 J/cm2. Before and immediately after the photodynamic treatments, the viral concentration was determined by PCR tests using the PCR real time testing facility ThermoFisher, QuantStudio 3.
The placebo patients received exactly same treatment procedure except that all placebo patients were treated with covered radiation heads. The patients were not able to distinguish an active versus a placebo treatment due to the filter function of the laser safety goggles.
(§2) We have treated 300 patients with the active treatment protocol and 300 patients with the placebo protocol described above. The active treatment group consisted of 164 men and 136 women, with an age range of 35-83 years. All patients signed informed consent prior to the start of the treatment protocol. The main inclusion citeria were fever, typical symptoms and a positive PCR test. The main exclusion criterium was a negative PCR test. Besides fever, we have found a significant variability in the initial presenting symptoms, like cough, loss of smell, loss of taste, headaches, fatigue and others.
We have characterized the course of the disease by the degree and duration of fever which was the most prominent symptom (see Table 1): […]

[1] = Treatment related adverse events in the clinical study; conditions: methylene blue + 660 nm irradiation, 300 patients
Protocol: as §1, §2

SARS CoV-2 = conditions: active treatment group, 4 weeks after photodynamic treatments; ELISA not specific for SARS CoV vs SARS CoV-2
[2] = max fever 39.2° C., 3 weeks, methylene blue + 660 nm irradiation, 300 patients
[3] = max fever 39.5° C., 4-6 weeks, methylene blue + 660 nm irradiation, 300 patients
[4] = moderate = max fever 38.7° C., 2 weeks, methylene blue + 660 nm irradiation, 300 patients

SMILES: CN(C)c1ccc2nc3ccc(=[N+](C)C)cc-3sc2c1 [methylene blue, methylthioninium-chloride]
- Mortality Rate - Active Treatment Group (SARS-CoV-2 (COVID-19); 300 patients, methylene blue + 660 nm irradiation): 0.7%
- Disease course Severe (Hospital Admission), Active Treatment Number (SARS-CoV-2 (COVID-19); [2]): 6 patients
- Disease course Severe (Hospital Admission), Active Treatment Percentage (SARS-CoV-2 (COVID-19); [2]): 2%
- Disease course Severe (Hospital/ICU Admission), Active Treatment Number (SARS-CoV-2 (COVID-19); [3]): 2 patients
- Disease course Severe (Hospital/ICU Admission), Active Treatment Percentage (SARS-CoV-2 (COVID-19); [3]): 0.6%
- Disease course Mild, Active Treatment Number (SARS-CoV-2 (COVID-19); mild = max fever 37.7° C., 1 week, 1% methylene blue flushing/gargling/spraying + 660 nm, 240 mW, total about 360 J/cm2, 300 patients): 192 patients
- Disease course Mild, Active Treatment Percentage (SARS-CoV-2 (COVID-19); mild = max fever 37.7° C., 1 week, methylene blue + 660 nm irradiation, 300 patients): 64%
- Disease course Moderate, Active Treatment Number (SARS-CoV-2 (COVID-19); [4]): 99 patients
- Disease course Moderate, Active Treatment Percentage (SARS-CoV-2 (COVID-19); [4]): 33%
- Severe course of disease (both severe categories together), active treatment group (SARS-CoV-2 (COVID-19); vs. 19% in placebo, methylene blue + 660 nm irradiation): 2.6%
- Attenuation of disease progression (mild plus moderate course), active treatment group (SARS-CoV-2 (COVID-19); vs. 81% in placebo, methylene blue + 660 nm irradiation): 97%
- Treatment related adverse events / side effects [1]: free of any side effects; also recorded: no treatment related adverse events
- Patients with presence of antibodies (ELISA) (SARS CoV-2): 96%
